Read-outs that look alike come from different tables or passages of the source.
T1: GST-HsPRMT7 (Homo sapiens, UniProt Q9NVM4)
T1 construct: full-length human PRMT7 (residues 1–692); 34693; host or cells: E. coli BL21 DE3
T1 sequence (Q9NVM4 1-692): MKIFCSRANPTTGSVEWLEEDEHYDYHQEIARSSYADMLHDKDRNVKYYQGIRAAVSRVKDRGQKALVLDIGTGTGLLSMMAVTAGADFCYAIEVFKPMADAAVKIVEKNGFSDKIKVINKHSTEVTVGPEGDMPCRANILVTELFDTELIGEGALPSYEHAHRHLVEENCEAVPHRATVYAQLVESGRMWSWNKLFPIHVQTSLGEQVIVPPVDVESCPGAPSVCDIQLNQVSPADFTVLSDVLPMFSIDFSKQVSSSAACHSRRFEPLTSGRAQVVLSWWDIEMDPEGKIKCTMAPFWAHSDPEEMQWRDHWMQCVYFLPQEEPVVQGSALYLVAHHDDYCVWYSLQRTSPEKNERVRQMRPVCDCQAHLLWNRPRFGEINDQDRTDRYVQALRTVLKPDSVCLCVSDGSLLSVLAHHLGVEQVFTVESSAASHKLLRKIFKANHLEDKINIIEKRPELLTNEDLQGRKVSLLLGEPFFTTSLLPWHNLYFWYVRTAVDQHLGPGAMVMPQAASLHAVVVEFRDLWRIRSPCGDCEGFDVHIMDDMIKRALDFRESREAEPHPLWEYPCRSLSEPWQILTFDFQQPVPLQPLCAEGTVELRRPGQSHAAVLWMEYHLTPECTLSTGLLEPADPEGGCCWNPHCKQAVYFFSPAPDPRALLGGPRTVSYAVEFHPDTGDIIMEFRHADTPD


Columns and labels:
human PRMT7 = settings: addition of 50 mM NaCl or KCl; cited from earlier work
Description: Comparatively, a previous study of ionic strength in human HEK293 cells estimates the intracellular concentration of potassium ions to be about 120–140 mM in human cells. As such, our results in Fig 7 led us to question whether this dramatic decrease in activity may be associated with a loss of either substrate-enzyme binding affinity or catalytic activity. || We confirm that human PRMT7 activity is quite sensitive to changes in the RXR target sequence in the substrate protein. […] The exquisite specificity of PRMT7 toward the basic RXR motif can be contrasted to the much broader speci ...

GST-HsPRMT7 [1] = target: T1, GST-HsPRMT7; assay: Michaelis-Menten kinetics of peptide substrate methylation (P81 phosphocellulose paper assay); assay type: biochemical; parameters: key to Vmax, Michaelis-Menten best-fit value, Fig7 / Vmax, Michaelis-Menten best-fit value, Fig8: Vmax expressed as cpm (averages of cycles 2–4)
Description: (§1) In vitro methylation assays were performed with GST-HsPRMT7, the indicated substrate protein or peptide, and 1.4 μM S-adenosyl-L-[methyl-^3H]methionine ([^3H]-AdoMet; PerkinElmer cat no. NET155V), prepared from diluting a stock of 7.0 μM [^3H]-AdoMet (81.9 Ci/mmol, 1 mCi/mL in 9:1 10 mM H2SO4:EtOH, v/v) in 10 mM HCl. All reactions were performed using distilled water buffered with 50 mM potassium HEPES, pH 9.5 and 1 mM DTT, reaching a final reaction volume of 30 μL. The reactions were initiated by adding [^3H]-AdoMet to a final concentration of 0.14 μM. Control reactions (enzyme-only, substrate-only) contained distilled water instead of substrate or GST-HsPRMT7, respectively. After initiation with [^3H]-AdoMet, all reactions analyzed via P81 phosphocellulose filter paper assay were incubated in a water bath at 25°C unless otherwise indicated for the specified time periods and were terminated with 0.5 μL 100% (w/v) trifluoroacetic acid (TFA). P81 assays performed at t = 0 were individually terminated immediately following initiation. Samples analyzed via SDS-PAGE were incubated at 4°C for 24 hours and were quenched by adding 5x SDS sample loading buffer (250 mM Tris-HCl, pH 6.8; 10% SDS, 30% glycerol, 10% β-mercaptoethanol, 0.2% bromophenol blue), followed by heating at 97°C for 3 min.
(§2) In vitro methylation assays with GST-HsPRMT7, selected methyl-accepting substrates, and [^3H]-AdoMet were set up as described previously and performed in triplicate. Following incubation at 25°C unless otherwise indicated for the time periods specified, all samples were quenched with 0.5 μL 100% TFA and centrifuged at 9,300 g for 10 seconds in an Eppendorf centrifuge (Model 5417C). 1 cm^2 pieces of P81 phosphocellulose filter paper (LabAlley catalog no. 05-717-2A) were spotted with 25 μL from each reaction mixture and set to dry overnight. The following day, all filter paper pieces were washed three times with 50 mM sodium bicarbonate solution, pH 9.0, and dried again in liquid scintillation vials. After 5 mL of Safety Solve fluor (RPI industries) was added to each vial, [^3H] radioactivity in each sample was quantified via liquid scintillation counter (Beckman LS6500) for four total cycles at 5 minutes per sample. All data presented are expressed as averages of the cpm from cycles 2–4.
(§3) Statistical analyses were performed using the “Analyze Data” function on GraphPad Prism v.8.0.1. To determine statistical significance, unpaired homoscedastic two-tailed Student’s t tests were performed with significance level α = 0.05 with the relevant data. To obtain apparent km and Vmax values, kinetic data were analyzed by non-linear regression using the Michaelis-Menten equation.

GST-HsPRMT7 [2] = target: T1, GST-HsPRMT7; assay: P81 phosphocellulose filter paper methylation assay with peptide substrates (cpm, end point and time course); assay type: biochemical; settings: 10 μM peptide
Description: as §1, §2, §3

PRMT9 = settings: methylation of SF3B2 at Arg508 (505-CFKRKYL-511); cited from earlier work
Source text: We confirm that human PRMT7 activity is quite sensitive to changes in the RXR target sequence in the substrate protein. […] The exquisite specificity of PRMT7 toward the basic RXR motif can be contrasted to the much broader speci ...

| Molecule | change of GST-HsPRMT7 activity on addition of salt (human PRMT7) | Km (GST-HsPRMT7 [1]; + 130 mM KCl, 5 μg GST-HsPRMT7, 0.14 μM [3H]-AdoMet, 60 min, 25°C, GraphPad Prism fit, read-out: Km, Michaelis-Menten best-fit value, Fig8) [µM] | Km (GST-HsPRMT7 [1]; +130 mM KCl, apparent km, 5 μg GST-HsPRMT7, various peptide concentrations, 0.14 μM [3H]-AdoMet, 60 min, 25°C, pH 9.5, Michaelis-Menten fit, triplicates (Fig 8), read-out: km) [µM] | Km (GST-HsPRMT7 [1]; no added salt, apparent km of peptide substrate, 5 μg GST-HsPRMT7, various peptide concentrations, 0.14 μM [3H]-AdoMet, 60 min, 25°C, pH 9.5, Michaelis-Menten fit, triplicates (Fig 8), read-out: km) [µM] | Vmax, Michaelis-Menten best-fit value, Fig8 (GST-HsPRMT7 [1]; no salt, 5 μg GST-HsPRMT7, 0.14 μM [3H]-AdoMet, 60 min, 25°C, GraphPad Prism fit) | Km (GST-HsPRMT7 [1]; no salt, 5 μg GST-HsPRMT7, 0.14 μM [3H]-AdoMet, 60 min, 25°C, GraphPad Prism fit, read-out: Km, Michaelis-Menten best-fit value, Fig8) [µM] | increase of apparent km on adding 130 mM KCl (GST-HsPRMT7 [1]; with vs without 130 mM KCl (Fig 8, Table 2)) [fold] | change of Vmax after adding 130 mM KCl (GST-HsPRMT7 [1]; with vs without 130 mM KCl (Fig 8, Table 2), in words) | methylation activity (GST-HsPRMT7 [2]; 5 μg GST-HsPRMT7, 0.14 μM [3H]-AdoMet, 25°C, 1 hour (Fig 4), approximate) | methylation activity (maximum value) (GST-HsPRMT7 [2]; 5 μg GST-HsPRMT7, 0.14 μM [3H]-AdoMet, 25°C, t = 120 min (Fig 6), approximate) | methylation activity (maximum) (GST-HsPRMT7 [2]; 5 μg GST-HsPRMT7, 0.14 μM [3H]-AdoMet, 25°C, t = 3 hours (Fig 4), approximate) | GST-HsPRMT7 methylation activity (GST-HsPRMT7 [2]; 5 μg GST-HsPRMT7, 0.14 μM [3H]-AdoMet, 40 min, 25°C (Fig 3), in words) | PRMT7 methylation activity (GST-HsPRMT7 [2]; 5 μg GST-HsPRMT7, 0.14 μM [3H]-AdoMet, 20 h, 4°C (Fig 5), in words) | Mean of GST-HsPRMT7 + peptide, Fig3 (GST-HsPRMT7 [2]; mean of n = 3, 40 min, 25°C) [cpm] | Difference between means ± SEM vs peptide only, Fig3 (GST-HsPRMT7 [2]; n = 3, 40 min, 25°C, SEM) [cpm] | Km (PRMT9) [µM] |
| --- | --- | --- | --- | --- | --- | --- | --- | --- | --- | --- | --- | --- | --- | --- | --- | --- |
| Ac-KKDGKKRKRSRKESY-NH2 [Hs H2B (23–37), synthetic peptide of amino acids 23–37 of human histone H2B, PRMT7 substrate used as positive control, reference compound] | decreases by half | 16.8 | 17 | 0.6 | 17053 | 0.558 | 30 | relatively unchanged | approximately 6,000 cpm | about 4,000 cpm | approximately 8,000 cpm | highest | highest PRMT7 methylation activity | 1604 | 1523 ± 86.54 | – |
| SF3B2: splicing factor SF3B2, methylated by PRMT9 at Arg508 (protein, UniProt Q13435 1-895, looked up) Splicing factor 3B subunit 2: MATEHPEPPKAELQLPPPPPPGHYGAWAAQELQAKLAEIGAPIQGNREELVERLQSYTRQTGIVLNRPVLRGEDGDKAAPPPMSAQLPGIPMPPPPLGLPPLQPPPPPPPPPPGLGLGFPMAHPPNLGPPPPLRVGEPVALSEEERLKLAQQQAALLMQQEERAKQQGDHSLKEHELLEQQKRAAVLLEQERQQEIAKMGTPVPRPPQDMGQIGVRTPLGPRVAAPVGPVGPTPTVLPMGAPVPRPRGPPPPPGDENREMDDPSVGPKIPQALEKILQLKESRQEEMNSQQEEEEMETDARSSLGQSASETEEDTVSVSKKEKNRKRRNRKKKKKPQRVRGVSSESSGDREKDSTRSRGSDSPAADVEIEYVTEEPEIYEPNFIFFKRIFEAFKLTDDVKKEKEKEPEKLDKLENSAAPKKKGFEEEHKDSDDDSSDDEQEKKPEAPKLSKKKLRRMNRFTVAELKQLVARPDVVEMHDVTAQDPKLLVHLKATRNSVPVPRHWCFKRKYLQGKRGIEKPPFELPDFIKRTGIQEMREALQEKEEQKTMKSKMREKVRPKMGKIDIDYQKLHDAFFKWQTKPKLTIHGDLYYEGKEFETRLKEKKPGDLSDELRISLGMPVGPNAHKVPPPWLIAMQRYGPPPSYPNLKIPGLNSPIPESCSFGYHAGGWGKPPVDETGKPLYGDVFGTNAAEFQTKTEEEEIDRTPWGELEPSDEESSEEEEEEESDEDKPDETGFITPADSGLITPGGFSSVPAGMETPELIELRKKKIEEAMDGSETPQLFTVLPEKRTATVGGAMMGSTHIYDMSTVMSRKGPAPELQGVEVALAPEELELDPMAMTQKYEEHVREQQAQVEKEDFSDMVAEHAAKQKQKKRKAQPQDSRGGSKKYKEFKF | – | – | – | – | – | – | – | – | – | – | – | – | – | – | – | 0.08 |
